Holding throughout (format): cell-based
In assay [1] the test system is Staphylococcus aureus 209P. As to the kind of experiment: antimicrobial activities in in vitro testing (MIC), Staphylococcus aureus 209P. From the text:
(§1) The results of the antimicrobial activities of these compounds in in vitro testing in accordance with the recognized method are set forth in the Table below.

Assay [2] deals with Staphylococcus aureus FS 289. As to the kind of experiment: antimicrobial activities in in vitro testing (MIC), Staphylococcus aureus FS 289. Particulars: FS289, read-out: Minimum Inhibitory Concentration.
Excerpt: as §1

The next assay concerns Escherichia coli NIHJ. As to the kind of experiment: antimicrobial activities in in vitro testing (MIC), Escherichia coli NIHJ.
Assay [3] deals with Klebsiella pneumoniae 602. As to the kind of experiment: antimicrobial activities in in vitro testing (MIC), Klebsiella pneumoniae 602.
For another assay, the system named is Proteus vulgaris HX 19. Kind of assay: antimicrobial activities in in vitro testing (MIC), Proteus vulgaris HX 19. Particulars: HX19, read-out: Minimum Inhibitory Concentration.
Excerpt: as §1

For assay [4], the system named is Pseudomonas aeruginosa 104. As to the kind of experiment: antimicrobial activities in in vitro testing (MIC), Pseudomonas aeruginosa 104.
Excerpt: as §1

The mark [5] stands for this setting: Staphylococcus aureus 209P, in vitro, read-out: Minimum Inhibitory Concentration.
Setting [6] is: in vitro, read-out: Minimum Inhibitory Concentration.
The mark [7] stands for this setting: Staphylococcus aureus 209 P, read-out: antimicrobial activities.
[8] abbreviates: read-out: antimicrobial activities.

Converted amounts (≈) assume the structure as drawn. Where two headings read alike, the source gives them in different places.

Take `NC(=O)OCC1=C(C(=O)O)N2C(=O)C(NC(=O)[C@H](NC(=O)c3cnccc3O)c3ccc(O)cc3)[C@H]2SC1` (stereo partly drawn) [Example 4, 7-[D-α-(4-Hydroxypyridine-3-carboxamido)-α-p-hydroxyphenylacetamido]-3-carbamoyloxymethyl-3-cephem-4-carboxylic Acid]: the MIC came out at 0.39 µg/mL (≈ 0.718 µM) in assay [1] (setting [5]); 3.13 µg/mL (≈ 5.76 µM) in assay [2]; 12.5 µg/mL (≈ 23 µM) in the assay on Escherichia coli NIHJ (setting [6]); 12.5 µg/mL (≈ 23 µM) in assay [3] (setting [6]); 0.2 µg/mL (≈ 0.368 µM) in the assay on Proteus vulgaris HX 19; 6.25 µg/mL (≈ 11.5 µM) in assay [4] (setting [6]).

Take `NC(=O)OCC1=C(C(=O)O)N2C(=O)C(NC(=O)[C@H](NC(=O)c3cnccc3O)c3cccc(N)c3)[C@H]2SC1` (stereo partly drawn) [Example 5, 7-[D-α-(4-Hydroxypyridine-3-carboxamido)-α-(m-aminophenyl)acetamido]-3-carbamoyloxymethyl-3-cephem-4-carboxylic acid]: the MIC in assay [1] (setting [5]) came out at 0.39 µg/mL (≈ 0.719 µM); in assay [2], 3.13 µg/mL (≈ 5.77 µM); in the assay with Escherichia coli NIHJ (setting [6]), 6.25 µg/mL (≈ 11.5 µM); in assay [3] (setting [6]), 12.5 µg/mL (≈ 23 µM); in the assay with Proteus vulgaris HX 19 it was 0.2 µg/mL (≈ 0.369 µM); in assay [4] (setting [6]) it was 6.25 µg/mL (≈ 11.5 µM).

Turning to `NC(=O)OCC1=C(C(=O)O)N2C(=O)C(NC(=O)[C@H](NC(=O)c3cnccc3O)c3ccccc3)[C@H]2SC1` (stereo partly drawn) [Example 6, 7-[D-α-(4-Hydroxypyridine-3-carboxamido)-α-phenylacetamido]-3-carbamoyloxymethyl-3-cephem-4-carboxylic acid], the MIC was 0.39 µg/mL (≈ 0.739 µM) in assay [1] (setting [5]); 3.13 µg/mL (≈ 5.93 µM) in assay [2]; 12.5 µg/mL (≈ 23.7 µM) with Escherichia coli NIHJ (setting [6]); 12.5 µg/mL (≈ 23.7 µM) in assay [3] (setting [6]); 0.2 µg/mL (≈ 0.379 µM) with Proteus vulgaris HX 19; 12.5 µg/mL (≈ 23.7 µM) in assay [4] (setting [6]).

Regarding `NC(=O)OCC1=C(C(=O)O)N2C(=O)C(NC(=O)[C@H](NC(=O)c3cnc4cccnc4c3O)c3ccc(O)cc3)[C@H]2SC1` (stereo partly drawn) [Example 7, 7-[D-α-(4-Hydroxy-1,5-naphthyridine-3-carboxamido)-α-(p-hydroxyphenyl)acetamido]-3-carbamoyloxymethyl-3-cephem-4-carboxylic acid], the MIC in assay [1] (setting [5]) came to 0.78 µg/mL (≈ 1.31 µM); in assay [2], 6.25 µg/mL (≈ 10.5 µM); in the assay on Escherichia coli NIHJ (setting [6]) it was 3.13 µg/mL (≈ 5.26 µM); in assay [3] (setting [6]) it was 1.56 µg/mL (≈ 2.62 µM); in the assay with Proteus vulgaris HX 19 it was 0.78 µg/mL (≈ 1.31 µM); in assay [4] (setting [6]), 6.25 µg/mL (≈ 10.5 µM).

Turning to `NC(=O)OCC1=C(C(=O)O)N2C(=O)C(NC(=O)[C@H](NC(=O)c3cnc4cccnc4c3O)c3ccccc3)[C@H]2SC1` (stereo partly drawn) [Example 8, 7-[D-α-(4-Hydroxy-1,5-naphthyridine-3-carboxamido)-α-phenylacetamido]-3-carbamoyloxymethyl-3-cephem-4-carboxylic acid], the MIC in assay [1] (setting [5]) was found to be 0.78 µg/mL (≈ 1.35 µM); in assay [2], 6.25 µg/mL (≈ 10.8 µM); with Escherichia coli NIHJ (setting [6]) it was 3.13 µg/mL (≈ 5.41 µM); in assay [3] (setting [6]), 1.56 µg/mL (≈ 2.7 µM); in the assay on Proteus vulgaris HX 19, 0.78 µg/mL (≈ 1.35 µM); in assay [4] (setting [6]), 6.25 µg/mL (≈ 10.8 µM).

As to `NC(=O)OCC1=C(C(=O)O)N2C(=O)C(NC(=O)[C@H](NC(=O)c3cnc4cccnc4c3O)c3cccc(N)c3)C2SC1` (some centres unmarked) [Example 9], the MIC in assay [1] (setting [5]) turned out to be 0.78 µg/mL (≈ 1.31 µM); in assay [2] it was 3.13 µg/mL (≈ 5.27 µM); in the assay with Escherichia coli NIHJ (setting [6]), 1.56 µg/mL (≈ 2.63 µM); in assay [3] (setting [6]) it was 1.56 µg/mL (≈ 2.63 µM); with Proteus vulgaris HX 19, 0.78 µg/mL (≈ 1.31 µM); in assay [4] (setting [6]), 6.25 µg/mL (≈ 10.5 µM).

On to `CSc1ncc2c(O)c(C(=O)N[C@@H](C(=O)NC3C(=O)N4C(C(=O)O)=C(COC(N)=O)CS[C@H]34)c3ccc(O)cc3)cnc2n1` (stereo partly drawn) [Example 10, 7-[D-α-(2-Methylthio-5,8-dihydro-5-oxopyrido[2,3-d]-pyrimidine-6-carboxamido)-α-(p-hydroxyphenyl)acetamido]-3-carbamoyloxymethyl-3-cephem-4-carboxylic acid], for which the MIC in assay [1] (setting [5]) came out at 0.78 µg/mL (≈ 1.22 µM); in assay [2], 3.13 µg/mL (≈ 4.88 µM); in the assay with Escherichia coli NIHJ (setting [6]), 6.25 µg/mL (≈ 9.74 µM); in assay [3] (setting [6]), 6.25 µg/mL (≈ 9.74 µM); with Proteus vulgaris HX 19 it was 1.56 µg/mL (≈ 2.43 µM); in assay [4] (setting [6]), 6.25 µg/mL (≈ 9.74 µM).

With `NC(=O)OCC1=C(C(=O)O)N2C(=O)C(NC(=O)[C@H](NC(=O)c3cnc4cncnc4c3O)c3ccc(O)cc3)C2SC1` (stereo partly drawn) [Example 11, 7-[D-α-(5,8-Dihydro-5H-8-oxopyrido[3,2-d]pyrimidine-7-carboxamido)-α-(p-hydroxyphenyl)acetamido]-3-carbamoyloxymethyl-3-cephem-4-carboxylic acid], the MIC in assay [1] (setting [5]) was found to be 1.56 µg/mL (≈ 2.62 µM); in assay [2], 6.25 µg/mL (≈ 10.5 µM); in the assay with Escherichia coli NIHJ (setting [6]), 6.25 µg/mL (≈ 10.5 µM); in assay [3] (setting [6]) it was 6.25 µg/mL (≈ 10.5 µM); with Proteus vulgaris HX 19, 1.56 µg/mL (≈ 2.62 µM); in assay [4] (setting [6]), 12.5 µg/mL (≈ 21 µM).

As to `NC(=O)OCC1=C(C(=O)O)N2C(=O)C(NC(=O)[C@H](NC(=O)c3cnc4cccnc4c3O)c3ccc(O)c(Cl)c3)C2SC1` (some centres unmarked) [Example 12], the MIC in assay [1] (setting [5]) was determined as 1.56 µg/mL (≈ 2.48 µM); in assay [2], 6.25 µg/mL (≈ 9.94 µM); with Escherichia coli NIHJ (setting [6]) it was 3.13 µg/mL (≈ 4.98 µM); in assay [3] (setting [6]) it was 1.56 µg/mL (≈ 2.48 µM); in the assay with Proteus vulgaris HX 19, 0.78 µg/mL (≈ 1.24 µM); in assay [4] (setting [6]), 6.25 µg/mL (≈ 9.94 µM).

For `O=C(O)Cc1nnc(SCC2=C(C(=O)O)N3C(=O)C(NC(=O)[C@H](NC(=O)c4cnc5cccnc5c4O)c4ccc(O)cc4)[C@H]3SC2)s1` (stereo partly drawn) [Example 13, 7-[D-α-(4-Hydroxy-1,5-naphthyridine-3-carboxamido)-α-p-hydroxyphenylacetamido]-3-(5-carboxymethyl-1,3,4-thiadiazol-2-ylthiomethyl)-3-cephem-4-carboxylic Acid], the MIC in assay [1] (setting [7]) turned out to be 0.78 µg/mL (≈ 1.1 µM); in the assay on Escherichia coli NIHJ (setting [8]), 1.56 µg/mL (≈ 2.2 µM); in assay [3] (setting [8]), 1.56 µg/mL (≈ 2.2 µM); in assay [4] (setting [8]) it was 3.13 µg/mL (≈ 4.41 µM).

As for `O=C(O)Cn1nnnc1SCC1=C(C(=O)O)N2C(=O)C(NC(=O)[C@H](NC(=O)c3cnc4cccnc4c3O)c3ccc(O)cc3)[C@H]2SC1` (stereo partly drawn) [Example 14, 7-[D-α-(4-Hydroxy-1,5-naphthyridine-3-carboxamido)-α-p-hydroxyphenylacetamido]-3-(1-carboxymethyl-1,2,3,4-tetrazol-5-ylthiomethyl)-3-cephem-4-carboxylic Acid], the MIC was found to be 0.78 µg/mL (≈ 1.12 µM) in assay [1] (setting [7]), 1.56 µg/mL (≈ 2.25 µM) in the assay with Escherichia coli NIHJ (setting [8]), 1.56 µg/mL (≈ 2.25 µM) in assay [3] (setting [8]) and 3.13 µg/mL (≈ 4.51 µM) in assay [4] (setting [8]).

These data come from patent publication US4368198A, “Cephalosporins” (Sumitomo Chemical Company Limited, priority 1976, dated 1983).
